The compounds below were run against T1, purified human HDAC6 (Homo sapiens, UniProt Q9UBN7) (assay: HDAC6 Enzyme Assay). Details: compound concentration 0.37 μM, read-out: Percent Inhibition.
T1 construct: purchased BPS Bioscience 5006
T1 sequence (Q9UBN7 1-1215): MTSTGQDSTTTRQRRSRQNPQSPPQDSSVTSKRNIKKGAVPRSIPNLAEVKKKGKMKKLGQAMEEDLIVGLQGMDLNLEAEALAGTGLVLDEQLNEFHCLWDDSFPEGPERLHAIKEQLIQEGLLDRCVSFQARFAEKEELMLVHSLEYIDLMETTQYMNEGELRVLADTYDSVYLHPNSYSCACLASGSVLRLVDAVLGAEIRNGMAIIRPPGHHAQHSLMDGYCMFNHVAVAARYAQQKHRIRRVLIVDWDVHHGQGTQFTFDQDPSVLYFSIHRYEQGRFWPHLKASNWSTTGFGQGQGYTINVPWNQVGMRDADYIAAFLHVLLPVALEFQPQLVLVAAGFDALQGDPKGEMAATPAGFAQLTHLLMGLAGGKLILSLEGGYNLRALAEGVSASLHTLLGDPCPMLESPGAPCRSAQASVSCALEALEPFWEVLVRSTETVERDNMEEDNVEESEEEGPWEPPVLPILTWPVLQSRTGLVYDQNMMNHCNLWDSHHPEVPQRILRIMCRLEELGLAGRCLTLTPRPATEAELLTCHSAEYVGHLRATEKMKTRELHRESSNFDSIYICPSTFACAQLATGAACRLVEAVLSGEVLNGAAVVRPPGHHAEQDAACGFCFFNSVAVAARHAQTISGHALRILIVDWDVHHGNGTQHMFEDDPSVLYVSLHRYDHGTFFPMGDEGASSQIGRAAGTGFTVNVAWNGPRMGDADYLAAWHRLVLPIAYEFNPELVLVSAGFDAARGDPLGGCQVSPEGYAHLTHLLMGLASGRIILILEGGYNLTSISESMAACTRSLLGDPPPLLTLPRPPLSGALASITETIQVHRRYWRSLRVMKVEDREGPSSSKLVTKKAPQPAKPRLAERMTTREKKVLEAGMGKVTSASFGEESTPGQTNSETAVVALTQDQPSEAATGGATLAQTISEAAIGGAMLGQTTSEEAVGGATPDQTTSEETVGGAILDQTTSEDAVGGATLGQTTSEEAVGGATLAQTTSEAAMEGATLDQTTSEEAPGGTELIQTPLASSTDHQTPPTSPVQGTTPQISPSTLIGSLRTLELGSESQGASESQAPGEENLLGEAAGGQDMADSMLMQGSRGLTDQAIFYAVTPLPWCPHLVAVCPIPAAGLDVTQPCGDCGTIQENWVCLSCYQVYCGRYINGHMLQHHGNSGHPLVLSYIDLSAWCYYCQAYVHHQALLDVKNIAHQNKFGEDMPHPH
Format: biochemical
How it was run: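 Readout is AMC fluorescence (Ex 340 nm, Em 460 nm) after trypsin cleavage of the deacetylated Ac-Arg-Gly-Lys(Ac)-AMC product. Reaction: purified human HDAC6, compound or vehicle, 1 hour, 30° C, quenched by trichostatin A. Single-concentration percent inhibition or IC50 calculated versus DMSO-treated samples.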

inhibition at 0.37 µM [%]	Structure (SMILES)
98.3	O=C(NO)c1ccc2ncn(CCc3cccc(-c4ccncc4)c3)c(=O)c2c1 [Compound I-220, N-hydroxy-4-oxo-3-[2-(3-pyridin-4-ylphenyl)ethyl]-3,4-dihydroquinazoline-6-carboxamide]
93.8	CC(=O)Nc1ccc(-c2cccc(CCn3cnc4ccc(C(=O)NO)cc4c3=O)c2)cc1 [Compound I-334, 3-{2-[4′-(acetylamino)biphenyl-3-yl]ethyl}-N-hydroxy-4-oxo-3,4-dihydroquinazoline-6-carboxamide]
94.1	CC(C)(c1ccccc1)n1cnc2ccc(C(=O)NO)cc2c1=O [Compound I-413, N-hydroxy-3-(1-methyl-1-phenylethyl)-4-oxo-3,4-dihydroquinazoline-6-carboxamide]
62.3	O=C(NO)c1ccc2c(=O)[nH]c(-c3cccc(-c4ccncc4)c3)nc2c1 [Compound I-396, N-hydroxy-4-oxo-2-(3-pyridin-4-ylphenyl)-3,4-dihydroquinazoline-7-carboxamide]
89.4	CN(C)S(=O)(=O)c1cccc(-c2cccc(Cn3cnc4ccc(C(=O)NO)cc4c3=O)c2)c1 [Compound I-244, 3-({3′-[(dimethylamino)sulfonyl]biphenyl-3-yl}methyl)-N-hydroxy-4-oxo-3,4-dihydroquinazoline-6-carboxamide]

The next lines start with the compound.

Structure (SMILES)	inhibition at 0.37 µM [%]
CCn1nccc1-c1nc2cc(C(=O)NO)ccc2c(=O)n1Cc1ccc(C(F)(F)F)cc1 [Compound I-13, 2-(1-ethyl-1H-pyrazol-5-yl)-N-hydroxy-4-oxo-3-[4-(trifluoromethyl)benzyl]-3,4-dihydroquinazoline-7-carboxamide]	82.1
O=C(NO)c1ccc2c(=O)n(Cc3ccc(C(F)(F)F)cc3)c(-c3cccc4cccnc34)nc2c1 [Compound I-26, N-hydroxy-4-oxo-2-quinolin-8-yl-3-[4-(trifluoromethyl)benzyl]-3,4-dihydroquinazoline-7-carboxamide]	92.3
CS(=O)(=O)c1cccc(Cn2cnc3ccc(C(=O)NO)cc3c2=O)c1 [Compound I-135, N-hydroxy-3-[3-(methylsulfonyl)benzyl]-4-oxo-3,4-dihydroquinazoline-6-carboxamide]	95.3

Same assay, conditions: compound concentration 0.412 μM, read-out: Percent Inhibition

inhibition at 0.412 µM [%]	Structure (SMILES)
96.8	COc1ccc(OCCn2ccc3ccc(C(=O)NO)cc3c2=O)cc1 [Compound I-257, N-hydroxy-2-[2-(4-methoxyphenoxy)ethyl]-1-oxo-1,2-dihydroisoquinoline-7-carboxamide]
56.5	CS(=O)(=O)c1ccccc1OCc1nc2cc(C(=O)NO)ccc2c(=O)[nH]1 [Compound I-249, N-hydroxy-2-{[2-(methylsulfonyl)phenoxy]methyl}-4-oxo-3,4-dihydroquinazoline-7-carboxamide]
98.5	O=C(NO)c1ccc2ccn(Cc3ccc4nonc4c3)c(=O)c2c1 [Compound I-290, 2-(2,1,3-benzoxadiazol-5-ylmethyl)-N-hydroxy-1-oxo-1,2-dihydroisoquinoline-7-carboxamide]
63.3	O=C(NO)c1ccc2nc[nH]c(=O)c2c1 [Compound I-283, N-hydroxy-4-oxo-3,4-dihydroquinazoline-6-carboxamide]
93	O=C(NO)c1ccc2[nH]c(=O)n(Cc3ccccc3)c(=O)c2c1 [Compound I-264, 3-benzyl-N-hydroxy-2,4-dioxo-1,2,3,4-tetrahydroquinazoline-6-carboxamide]
94.2	O=C(NO)c1ccc2ccn(Cc3ccccc3Cl)c(=O)c2c1 [Compound I-162, 2-(2-chlorobenzyl)-N-hydroxy-1-oxo-1,2-dihydroisoquinoline-7-carboxamide]
42.4	Nc1nc2cc(C(=O)NO)ccc2c(=O)[nH]1 [Compound I-199, 2-amino-N-hydroxy-4-oxo-3,4-dihydroquinazoline-7-carboxamide]
67	O=C(NO)c1ccc2ccn(CCOc3ccc(C45CC6CC(CC(C6)C4)C5)cc3)c(=O)c2c1 [Compound I-161, 2-(2-{4-[1-adamantyl]phenoxy}ethyl)-N-hydroxy-1-oxo-1,2-dihydroisoquinoline-7-carboxamide]
95	O=C(NO)c1ccc2ccn(Cc3ccccc3CS(=O)(=O)c3ccccc3)c(=O)c2c1 [Compound I-178, N-hydroxy-1-oxo-2-{2-[(phenylsulfonyl)methyl]benzyl}-1,2-dihydroisoquinoline-7-carboxamide]
96	COc1ccccc1OCCCn1ccc2ccc(C(=O)NO)cc2c1=O [Compound I-240, N-hydroxy-2-[3-(2-methoxyphenoxy)propyl]-1-oxo-1,2-dihydroisoquinoline-7-carboxamide]
95.9	O=C(NO)c1ccc2c(=O)n(Cc3ccc(F)cc3)cnc2c1 [Compound I-209, 3-(4-fluorobenzyl)-N-hydroxy-4-oxo-3,4-dihydroquinazoline-7-carboxamide]
94.9	CC(C)(C)c1ccc(Cn2cnc3ccc(C(=O)NO)cc3c2=O)cc1 [Compound I-288, 3-(4-tert-butylbenzyl)-N-hydroxy-4-oxo-3,4-dihydroquinazoline-6-carboxamide]

Second part, the compound before the results:

Structure (SMILES)	inhibition at 0.412 µM [%]
Cc1ccccc1OCCn1ccc2ccc(C(=O)NO)cc2c1=O [Compound I-149, N-hydroxy-2-[2-(2-methylphenoxy)ethyl]-1-oxo-1,2-dihydroisoquinoline-7-carboxamide]	97.3
O=C(NO)c1ccc2ccn(Cc3ccc(Cl)c(Cl)c3)c(=O)c2c1 [Compound I-1, 2-(3,4-dichlorobenzyl)-N-hydroxy-1-oxo-1,2-dihydroisoquinoline-7-carboxamide]	95.9
COc1ccc(Nc2nc3cc(C(=O)NO)ccc3c(=O)n2C)cc1 [Compound I-49, N-hydroxy-2-[(4-methoxyphenyl)amino]-3-methyl-4-oxo-3,4-dihydroquinazoline-7-carboxamide]	55
COc1ccc(NCCCn2ccc3ccc(C(=O)NO)cc3c2=O)cc1 [Compound I-34, N-hydroxy-2-{3-[(4-methoxyphenyl)amino]propyl}-1-oxo-1,2-dihydroisoquinoline-7-carboxamide]	94.3
O=C(NO)c1ccc2c(=O)[nH]c(C(=O)NCc3ccc(Cl)cc3)nc2c1 [Compound I-68, N^2-(4-chlorobenzyl)-N^7-hydroxy-4-oxo-3,4-dihydroquinazoline-2,7-dicarboxamide]	61.7
O=C(NO)c1ccc2ccn(Cc3cccc(Oc4ccc(F)cc4)c3)c(=O)c2c1 [Compound I-98, 2-[3-(4-fluorophenoxy)benzyl]-N-hydroxy-1-oxo-1,2-dihydroisoquinoline-7-carboxamide]	91
Cc1ccn(CCn2cnc3ccc(C(=O)NO)cc3c2=O)n1 [Compound I-57, N-hydroxy-3-[2-(3-methyl-1H-pyrazol-1-yl)ethyl]-4-oxo-3,4-dihydroquinazoline-6-carboxamide]	77.4
Cn1cnc2ccc(C(=O)NO)cc2c1=O [Compound I-156, N-hydroxy-3-methyl-4-oxo-3,4-dihydroquinazoline-6-carboxamide]	55.7
CCCCC(CC)Cn1ccc2ccc(C(=O)NO)cc2c1=O (centres unmarked) [Compound I-94, 2-(2-ethylhexyl)-N-hydroxy-1-oxo-1,2-dihydroisoquinoline-7-carboxamide]	93.5
